From patent US20240058240A1, “COMPOUNDS AS SELF-TANNING SUBSTANCES AND TANNING COMPOSITIONS THEREOF” (CHEMCOM S.A., priority 2020, published 2024) come the findings set out here.

Format in all cases: cell-based
The target of one series is T1, OR7C1 (Homo sapiens, UniProt O76099).
T1 construct: transfected with a plasmid containing the CRE-luciferase and a plasmid containing the olfactory receptor; expressed in transfected cells; host or cells: HEK293T-RTP1A1/RTP2 (HEK293T stably expressing the chaperones RTP1A1 and RTP2)
T1 sequence (O76099 1-320): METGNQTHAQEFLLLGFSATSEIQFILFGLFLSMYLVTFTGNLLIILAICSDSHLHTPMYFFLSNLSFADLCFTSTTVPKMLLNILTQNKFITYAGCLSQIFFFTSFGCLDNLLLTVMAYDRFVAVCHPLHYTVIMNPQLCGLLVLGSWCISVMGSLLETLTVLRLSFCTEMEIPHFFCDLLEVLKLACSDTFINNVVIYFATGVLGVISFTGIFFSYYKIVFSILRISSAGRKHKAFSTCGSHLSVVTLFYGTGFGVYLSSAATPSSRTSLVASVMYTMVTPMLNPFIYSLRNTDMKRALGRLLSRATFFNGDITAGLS
Description: Luciferase-based CRE gene reporter assay, dose-response on OR7C1. To be noted: negative logarithm of the EC50 in Moles; semi-logarithmic dilutions from 1 mM to 316 nM on OR7C1; read-out: -LogEC50 (average n > 3) (converted). On the procedure:
HEK293T-RTP1A1/RTP2 cells were maintained in minimal essential medium (EMEM, Lonza) containing 10% fetal bovine serum (M10). These cells were generated by transfecting HEK293T (Thermofisher Scientific, cat ref: R70007) with an expression vector containing the sequences of the chaperone proteins RTP1A1 and RTP2 and a resistance gene to puromycin, using Lipofectamine 2000. The recombinant cell population, used in these experiments, was selected by adding 10 μg/ml of puromycin into the culture medium and subsequently subcloned (WO 2014/191047 A1).
Potential OR7C1 agonists were diluted at a concentration of 1 mole/liter (M) into an organic solvent such as Dimethyl Sulfoxide (DMSO) or Ethanol to generate stock solutions. […]
For concentration-response analysis, serial dilutions of the tested molecules were prepared from stock solutions in EMEM plated into 96-well plates.
For the dose-response analysis, a Luciferase-based gene reporter assay (Promega, Leiden, the Netherlands) was used. Briefly, cells were platted on poly-D-lysine-coated 96-well plates and transfected with a plasmid containing the CRE-luciferase and a plasmid containing the olfactory receptor. Sixteen hours after transfection, the culture medium was replaced by serum-free EMEM containing the tested compounds at a determined concentration. After four hours of incubation at 37° C., cells were lysed and processed for luminescence measurement. Luminescence emission was recorded. Results were expressed as luciferase activity ([…] (RLU)) or as percentage of the response induced by 10 μM of the adenylate cyclase activator Forskolin. An empty plasmid is used as negative control.
Dose-response analyses using the luciferase-based reporter assay were performed using semi-logarithmic serial dilutions of the compounds, from 1 mM to 316 nM, on OR7C1. 46 compounds were tested in concentration-response analyses. In each experiment, an empty vector (pEFIBRHO) was used as negative control. Values are given as the negative logarithm of the EC50 in Moles.
Background: A reporter such as luciferase makes a cellular process visible.

Series [1] relates to Normal Human Epidermal Melanocytes moderately pigmented (NHEMs-MP). Kind of series: MTS cytotoxicity test on NHEMs-MP. To be noted: 4 days of treatment, 5 concentrations, threshold 80% viability. On the procedure: (§1) This primary culture was cultivated in medium M254 supplemented (LIFE TECHNOLOGIES; ref:M-254-500) with HMGS (human melanocyte growth supplement; LIFE TECHNOLOGIES; ref: S-002-5) and gentamycin (LIFE TECHNOLOGIES; ref:15710-049) and maintained in a humidified incubator at 37° C. with a 5% CO2 atmosphere. For experiments (see below), cells were seeded at a density of 9×10^4 cells/well (100 μL/well) and cultured at 37° C. under a 5% CO2.
NHEMs moderately pigmented (NHEMs-MP) were seeded in 24-wells plates at a density of 9×10^4 cells/well, 72 h before the treatment with the different concentrations of 2 different compounds according to embodiments of the invention. After 2 days of treatment with these compounds, compounds were re-applied for 2 additional days according to the experimental scheme as shown in FIG. 1. Sodium dodecyl sulfate (SDS) at 0.05% was used as cytotoxicity positive control in order to validate the experiment. […]
An MTS assay (3-(4,5-dimethythiazol-2-yl)-5-(3-carboxymethoxyphenyl)-2-(4-sulfophenyl)-2H-tetrazolium) was performed to measure the maximal concentrations the compounds which can be used in the culture medium of NHEMs-MP without affecting cell viability. […] Cell viability was analyzed, and toxicity/viability was expressed in percentage relative to the ethanol treated condition which was fixed at 100%. […]

Series [2] has the same test system. Description: Melanin content (pigmentation) of NHEMs-MP in culture. On the procedure: as §1
The NHEMs-MP were treated for 4 days, with a medium refresh after 2 days of treatment—Amberketal, Ambermax and with the reference molecule (L-DOPA)—when the culture media are collected and stored at −80° C. as shown in FIG. 2. At the end of the treatments, the culture media were collected a second time, pooled with the media collected at day 2 and centrifuged for 30 minutes (14000 rpm). The pellet obtained after centrifugation and NHEMs-MP treated cells were lysed in 150 μl of a NaOH 1M solution. 5 μl of each cell lysate were used for protein quantification using BCA protein assay. The remaining 145 μl of the lysates were heated at 80° C. during 1 h. The optical density was measured at 490 nm and the melanin content was determined by comparison with a standard curve of synthetic melanin and reported to the quantity of protein present in each cell well tested.
The effects of these 2 compounds, namely Ambermax and Amberketal, on the melanin production were evaluated as described above. Based on MTS results, moderately pigmented (MP) NHEMs were treated with these 2 compounds at one concentration (100 μM for Amberketal and 3.16 μM for Ambermax) for 4 days. In parallel, cell cultures were also treated with Ethanol 0.1%, a concentration corresponding to the test compounds solvent, and with a known modulator of pigmentation (L-DOPA 50 μM). […] At the end of the treatments (D4), cells were lysed, the melanin content was quantified by spectrophotometry and normalized to the amount of proteins. Extracellular melanin was also evaluated by the same methodology after centrifugation of the culture media.

Turning to `CC(=O)C1(C)CCC2=C(C1C)C(C)(C)CCC2` (stereo not drawn) [Compound 4, Georgywood], on OR7C1, the EC50 was 25.1 µM. Besides, the “cell toxicity (MTS, viability relative to ethanol treated condition)” value in series [1] is on record as “no significant cell toxicity”.
On to `CC12CCC3C(CCC4C(C)(C)CCCC43C)(CO1)O2` (stereo not drawn) [Compound 17, Amberketal], for which the EC50 on OR7C1 is 2.51 µM. Moreover, in series [2] (100 μM, 4 days, NHEMs-MP, in comparison with DOPA (50 μM), p<0.01, n=10), the “increase of melanin present in the media (extracellular)” value is “+99%”. Also, the “increase of intracellular melanin content” value in series [2] (100 μM, 4 days, NHEMs-MP, in comparison with DOPA (50 μM), p<0.01, n=12) was “+40%”.
For the molecule `N[C@@H](Cc1ccc(O)c(O)c1)C(=O)O` [L-DOPA, 3,4-dihydroxyphenylalanine, reference compound], in series [2] (50 μM, 4 days of treatment), the “melanin content in NHEMs” value is recorded as “enhanced slightly the melanin content”.
